Values quoted from earlier work in patent US20170266323A1, “NEAR-INFRARED-II FLUORESCENT AGENTS, METHODS OF MAKING NEAR-INFRARED-II FLUORESCENT AGENTS, AND METHODS OF USING WATER-SOLUBLE NIR-II FLUORESCENT AGENTS” (The Board of Trustees of the Leland Stanford Junior …, priority 2013, published 2017).

Legend:
[1] = in DCM, rhodamine B in ethanol as reference, reported by one study

ClC1=C(C=Cc2cc(-c3ccccc3)[s+]c(-c3ccccc3)c2)CCCC1=CC=C1C=C(c2ccccc2)SC(c2ccccc2)=C1.F[B-](F)(F)F [IR-1061, 4-[2-[2-Chloro-3-[(2,6-diphenyl-4H-thiopyran-4-ylidene)ethylidene]-1-cyclohexen-1-yl]ethenyl]-2,6-diphenylthiopyrylium tetrafluoroborate]
solubility in water: water insoluble | fluorescence quantum efficiency [1]: ~1.7±0.5%
